# Assay results taken from patent US6133299A, “Methods for treating neurodegenerative diseases and disorders using N-(2,6-disubstituted aromatic)-N'-pyridinyl ureas and other anticonvulsant compounds” (Warner-Lambert Company, priority 1993, dated 2000).
# Experiments:
# Hippocampal Slices = assay: Recovery of synaptic activity (EPSP) in hippocampal slices after hypoxia-hypoglycemia (Example 4); type: cell-based, rat (male Wistar)
# Protocol: Young male Wistar rats (150 to 250 g) were anesthetized with ketamine (200 mg/kg IP) and ether and were perfused transcardially with cold, oxygenated, low sodium-containing physiological buffer solution (252 mM sucrose, 3.5 mM KCl, 1.0 mM MgSO4, 20 mM CaC1, 26 mM NaHCO3, 1.25 mM NaH2 PO4, and 10 mM glucose) with 50 μM ketamine added. Brains were removed and hippocampi carefully excised. Hippocampi were sliced transversely at 450 μm and transferred into cold (4° C.) low-sodium buffer solution gassed with 95% O2, 5% CO2 at 31° C. After 45 minutes slices were transferred to oxygenated normal physiological solution (126 mM NaCl, 3.5 mM KCl, 1.0 mM MgSO4, 2.0 mM CaCl2, 20 mM NaHCO3, 1.25 mM NaH2 PO4, and 10 mM glucose) at 31° C. for at least 1 hour before experiments began. After preincubation, slices were transferred to a heated (36° C.), gassed incubation chamber where they were continuously superfused with gassed normal physiological solution. Evoked extracellular synaptic potentials (EPSPs) were obtained using glass micropipettes placed approximately 100 μm into the slice. Electrical stimulation was applied once per minute to the stratum radiatum by insulated paired nichrome wires (60 μm diameter). Stimuli consisted of 150 μA pulses lasting 0.4 msec. […] Data from a slice were used only if EPSP amplitude was greater than 2.0 mV before hypoxia-hypoglycemia.
# Evoked potentials were recorded and analyzed with a digital computer interface. Experiments were started by recording for several minutes under normal conditions (95% O2, 5% CO2, 10 mM glucose). Then drug was added to the superfusion solution (or normal solution was continued in control experiments). After 10 minutes of drug superfusion, hypoxia-hypoglycemia was induced by switching to superfusion solution containing added drug with low glucose (2 mM) that was equilibrated with 95% N2 and 5% CO2. At the same time the slice chamber gas was switched to 95% N2 and 5% CO2. Hypoxia-hypoglycemia was continued for 12 minutes. After 12 minutes, 95% O2 and 10 mM glucose were returned to the slices and the superfusing solution. Following 15 minutes of reoxygenation, the experiment was ended. EPSPs were considered recovered if they returned to at least half of their original amplitude. The percentage of slices with recovered EPSPs were calculated for each condition.
# This study was identical in design to Example 3 except that during the hypoxic period of 12 minutes, glucose was reduced from 10 mM to 2 mM rather than from 10 mM to zero as in Example 3.
# [1] = system: neuroprotective capabilities; assay: Neuroprotective capabilities in vitro (general statement); type: cell-based
# calcium channels = conditions: concentrations similar to those tested; cited from earlier work
# [2] = system: Neuronal/Glial Cortical Cultures; assay: Hypoxia-induced lactate dehydrogenase release (cell injury) in neuronal/glial cortical cultures; type: cell-based, rat (Sprague Dawley); conditions: Rattus norvegicus, read-out: % Inh (percent inhibition of the release of lactate dehydrogenase in comparison to hypoxic control cultures)
# Protocol: An assay was conducted to compare the inhibitory action of various compounds which are the subject of the present invention. The assay measured the oxygen deprivation-induced neuronal cell death from various cortical cultures. Lactate dehydrogenase (LDH) is a cytosolic enzyme that is only present in the extracellular medium if cell membranes rupture, indicating cell death. Therefore, LDH release into the culture medium is a convenient assay of cell death. The results of Table 3 indicate that each of the compounds tested decreased neuronal cell death from hypoxia in vitro.
# The uteri of Sprague Dawley rats in their 18th day of fetal gestation were removed under halothane anesthesia and placed in a chilled bath of magnesium and calcium-free Hank's balanced salt solution (HBSS). Cortical brain hemispheres were removed from individual fetuses and digested in 0.1% trypsin in HBSS for 15 minutes at room temperature. Digested tissue was washed three times with HBSS then dissociated into a single cell suspension by trituration with a glass pipette. […] One hundred microliters of this cell suspension was pipetted into individual wells of 96-well tissue culture plates previously coated with poly-L-lysine, then stored in a humidified incubator (37° C., 3% CO2). Glial cell growth was stopped by the addition of 100 μL of 45% DME, 45% HAM F12, and 10% Horse serum (10/0 DME/F12) containing 15 μg/mL of 5-fluoro-2-deoxyuridine and 35 μg/mL of uridine, 3 days after the initial plating. Cultures were fed at 2- or 3-day intervals thereafter by replacing 100 μL of spent medium with an identical volume of fresh 10/0 DME/F12.
# Sixteen-day-old cultures were prepared for experiments by removing growth medium from each culture well and rinsing once with 250 μL of Mg^++ -free HBSS containing 1.8 mM Ca^++ and 1 g/L D-glucose (0 Mg-HBSS) Control and test agent solutions, prepared using 0 Mg-HBSS medium, were dispensed in 50 μL aliquots into individual test wells (Total volume/well=50 μL). All liquid medium preparations to this point were equilibrated with […], 5% CO2. Plates were placed into a 37° C., humidified, triple-gas incubator with O2 and CO2 levels maintained at 1% and 10%, respectively. Plates were removed after 7.5 hours of oxygen deprivation and restored to normoxic conditions (20% O2 /10% CO2, 37° C.) following a 50 μL addition to each well of appropriate control or test agent solutions containing 1.8 mM Ca^++, 1.6 mM Mg^++, and 7.0 g/L D-glucose. Final medium concentrations of 1.8 mM Ca^++, 0.8 mM Mg^++, and 4 g/L D-glucose were present during the reoxygenation period.
# Medium concentrations of lactate dehydrogenase (LDH), a cytosolic enzyme normally retained by cells but released upon cell death, were determined for each well following an additional 16.5-hour normoxic exposure period. Individual 25 μL medium specimens were collected from each well and placed into wells of a clean 96-well microtiter plate containing 225 μL of 0.1 M KPO4 buffer (pH=7.5 at 25° C.) and 30 μg NADH (reduced […] adenine dinucleotide). After 10-minute incubation at 37° C., 30 μL of 2.4 mM sodium pyruvate was added to each well and plates were gently shaken to mix solution. Plates were immediately placed into a Multiscan MCC/340 plate reader and scanned for […] (excitation at 340 nm) for 1 minute at 5-second intervals. A kinetic analysis of the change in medium absorbance resulting from shifts in NADH concentrations was used, in combination with factors to correct for temperature, light path, and volume adjustments to determine medium LDH concentrations (IU/mL). Normoxic control baseline LDH levels were subtracted from both hypoxic control and test agent values prior to determining test agent effectiveness in preventing oxygen deprivation-induced injury.
# [3] = system: neuronal damage from ischemia; conditions: in vitro and in vivo; cited from earlier work
smiles,measurement,setting,value
"O=C1NC(=O)C(c2ccccc2)(c2ccccc2)N1 [Phenytoin, phenytoin]",Number Slices Recovered / Number Slices Tested (≥50% EPSP amplitude recovery after reoxygenation),Hippocampal Slices; 5 μM,0/8
same,Number Slices Recovered / Number Slices Tested (≥50% EPSP amplitude recovery after reoxygenation),Hippocampal Slices; 20 μM,5/12
same,Number Slices Recovered / Number Slices Tested (≥50% EPSP amplitude recovery after reoxygenation),Hippocampal Slices; 50 μM,3/9
same,"recovery of EPSPs, overall effect",Hippocampal Slices; concentrations tested in Table 2,enhanced recovery of EPSPs
same,neuroprotective capabilities,[1],shown in vitro to have neuroprotective capabilities
same,action on calcium channels,calcium channels,blocks a variety of calcium channels
same,inhibition at 30 µM,[2]; 30 μM,78%
same,inhibition at 100 µM,[2]; 100 μM,82%
same,effect on neuronal damage from ischemia,[3],preventing neuronal damage from ischemia both in vitro and in vivo
